# Assay results taken from patent publication US20230150951A1, “2,5- OR 2,6-DISUBSTITUTED HYDROQUINONE DERIVATIVES WITH AT LEAST ONE CARBOXY, SULFO OR AMIDO GROUP USEFUL AS MEDICAMENTS” (OM PHARMA SA, priority 2020, published 2023).
# Read-outs that look alike come from different tables or passages of the source.
# Key:
# Format in all cases: cell-based
# IL-10 = test: Cytokine release after LPS induction on human whole blood: IL-10
# Description: (§1) Aim of this in vitro method is to assess compounds effects on release of a panel of cytokines from whole blood following lipopolysaccharide (LPS) induced inflammatory reaction. Whole blood was incubated with compounds for 1 h prior to LPS induction. Cytokine levels in blood were measured using a multiplex FACS-based panel.
# (§2) IC50 values determined for the tested compounds expressed in microM [μM] and the values for the inhibition of cytokines were listed for each compound.
# (§3) Effect on cytokines release after LPS induction was performed on the compounds dissolved in DMSO or H2O to reach 10-fold concentrated stock solutions and dissolved in culture media.
# (§4) Test system: Whole blood was removed from a single donor (into lithium heparin coated tubes; BD Vacutainer; 367886) and diluted 1:5 with RPMI 1640 (Thermo Fisher, 61870036). Within 30 minutes of sampling, blood was incubated with compounds for 1 h prior to LPS stimulation (O111:B4—Sigma L4391; 10 ng/ml final concentration). Stimulation continued under standard cell culture conditions (37° C. with 5% CO2) overnight (18 h), after which plates were centrifuged and supernatant removed and frozen at −80° C. until used for analyses.
# (§5) Dilution of test compounds: 10×concentrated solutions (concerning to the final assay concentrations) of each test compound were prepared with the appropriate solvent (in DMSO or in water). These 10× compound solutions (10 μl) were then added to 90 μl pre-diluted whole blood (whole blood: RPMI1640, 1:5) resulting in the final assay concentration.
# (§6) Test method: Diluted whole blood (80 μl) was pre-incubated with compounds (10 μl) to give final assay concentrations of 100, 30, 10, 3, 1, 0.3 and 0.1×10^−6M. Blood was incubated at 37° C. with 5% CO2 for 1 h. LPS was diluted in cell culture media to a concentration of […]; 10 μl was added to the whole blood to give a final concentration of 10 ng/ml. Plates were incubated at 37° C. for 18 h. Plates were centrifuged at 3,000 RPM for 5 minutes at 4° C. and supernatant removed and frozen at −80° C. until FACS analysis was carried out.
# (§7) Cytokine release was measured using a custom multiplex system (ELISA Genie) according to manufacturers instructions. Prepared samples were run on an Attune NxT flow cytometer (Thermo Fisher).
# (§8) Quantification of cytokine release inhibition: known concentration standards were run as part of the cytokine panel to allow quantification of each cytokine concentration in each sample. This was carried out using FCAP Array v3.0 software.
# (§9) Results: The dose response relationship on cytokine release following LPS induction of inflammatory response in whole blood was assessed for all compounds. IC50 values were determined for each compound for a panel of cytokines (GM-CSF, IFN-gamma, IL-1beta, IL-2, IL-4, IL-5, IL-6, IL-8, IL-9, IL-10, IL-12p40, IL-13, IL-17A, IL-17F, IL-18, IL-21, IL-22, IL-33, TGF-beta, TNF-alpha, TNF-beta).
# IL-12p70 = test: Cytokine release after LPS induction on human whole blood: IL-12p70
# IL-21 = test: Cytokine release after LPS induction on human whole blood: IL-21
# Description: as §1, §2, §3, §4, §5, §6, §7, §8, §9
# IL-33 = test: Cytokine release after LPS induction on human whole blood: IL-33
# Description: as §1, §2, §3, §4, §5, §6, §7, §8, §9
# [1] = Homo sapiens, LPS 10 ng/ml, 18 h, read-out: Whole Blood: IL-10 IC50
# [2] = human whole blood, inhibition of LPS induced inflammation, read-out: IC50 IL-10
# [3] = Homo sapiens, LPS 10 ng/ml, 18 h, read-out: Whole Blood: IL-12p70 IC50
# [4] = human whole blood, inhibition of LPS induced inflammation, read-out: IC50 IL-12p70
# [5] = Homo sapiens, LPS 10 ng/ml, 18 h, read-out: Whole Blood: IL-21 IC50
# [6] = human whole blood, inhibition of LPS induced inflammation, read-out: IC50 IL-21
# [7] = Homo sapiens, LPS 10 ng/ml, 18 h, read-out: Whole Blood: IL-33 IC50
# [8] = human whole blood, inhibition of LPS induced inflammation, read-out: IC50 IL-33
SMILES,IC50 (IL-10; [1]) [µM],IC50 (IL-10; [2]) [µM],IC50 (IL-12p70; [3]) [µM],IC50 (IL-12p70; [4]) [µM],IC50 (IL-21; [5]) [µM],IC50 (IL-21; [6]) [µM],IC50 (IL-33; [7]) [µM],IC50 (IL-33; [8]) [µM],"IC50 (IL-10; Homo sapiens, 18 h, read-out: Whole Blood: IL-10 IC50) [µM]","IC50 (IL-10; Homo sapiens, read-out: IC50 IL-10) [µM]","IC50 (IL-12p70; Homo sapiens, 18 h, read-out: Whole Blood: IL-12p70 IC50) [µM]","IC50 (IL-12p70; Homo sapiens, read-out: IC50 IL-12p70) [µM]","IC50 (IL-21; Homo sapiens, 18 h, read-out: Whole Blood: IL-21 IC50) [µM]","IC50 (IL-21; Homo sapiens, read-out: IC50 IL-21) [µM]","IC50 (IL-33; Homo sapiens, 18 h, read-out: Whole Blood: IL-33 IC50) [µM]","IC50 (IL-33; Homo sapiens, read-out: IC50 IL-33) [µM]"
"O=C(O)c1cc(O)c(C(=O)Nc2ccccc2C(=O)O)cc1O [Ia-001a, 4-(2-carboxyphenylaminocarbonyl)-2,5-dihydroxybenzoic acid]",> 100,100,1.5,1.5,> 100,100,19.3,19.3,–,–,–,–,–,–,–,–
"O=C(O)c1cc(O)c(C(=O)Nc2ccccc2-c2nnn[nH]2)cc1O [Ia-001a-Tz, 4-(2-(1H-tetrazol-5-yl)phenyl-aminocarbonyl)-2,5-dihydroxybenzoic acid]",26.1,26.1,32.4,32.4,> 100,100,23.6,23.6,–,–,–,–,–,–,–,–
"O=C(O)c1cc(O)c(C(=O)Nc2ccccc2S(=O)(=O)O)cc1O [Ia-001c, 2,5-dihydroxy-4-(2-sulfophenylaminocarbonyl)benzoic acid]",1.9,1.9,0.44,0.44,> 100,100,> 100,100,–,–,–,–,–,–,–,–
"O=C(O)c1cc(O)c(C(=O)Nc2ccc(-c3nnn[nH]3)cc2)cc1O [Ia-003a-Tz, 4-(4-(1H-tetrazol-5-yl)phenyl-aminocarbonyl)-2,5-dihydroxybenzoic acid]",6.94,6.94,1.26,1.26,1.49,1.49,72.2,72.2,–,–,–,–,–,–,–,–
"O=C(O)c1cc(NC(=O)c2cc(O)c(C(=O)Nc3ccccc3-c3nnn[nH]3)cc2O)ccc1O [Ic-001a-Tz/004a, 5-(4-(2-(1H-tetrazol-5-yl)phenylaminocarbonyl)-2,5-dihydroxybenzamido)-2-hydroxy benzoic acid]",–,–,–,–,–,–,–,–,19.5,19.5,12.2,12.2,0.3,0.3,1.67,1.67
"O=C(O)c1cc(NC(=O)c2cc(O)c(C(=O)Nc3ccc(O)c(C(=O)O)c3)cc2O)ccc1O [Ic-007a, 5-(4-(3-carboxy-4-hydroxyphenylaminocarbonyl)-2,5-dihydroxybenzamido)-2-hydroxy benzoic acid]",12.5,12.5,0.49,0.49,1.9,1.9,18.4,18.4,–,–,–,–,–,–,–,–

# The next lines start with results.
IC50 (IL-10; [1]) [µM],IC50 (IL-10; [2]) [µM],IC50 (IL-12p70; [3]) [µM],IC50 (IL-12p70; [4]) [µM],IC50 (IL-21; [5]) [µM],IC50 (IL-21; [6]) [µM],IC50 (IL-33; [7]) [µM],IC50 (IL-33; [8]) [µM],SMILES,"IC50 (IL-10; Homo sapiens, 18 h, read-out: Whole Blood: IL-10 IC50) [µM]","IC50 (IL-10; Homo sapiens, read-out: IC50 IL-10) [µM]","IC50 (IL-12p70; Homo sapiens, 18 h, read-out: Whole Blood: IL-12p70 IC50) [µM]","IC50 (IL-12p70; Homo sapiens, read-out: IC50 IL-12p70) [µM]","IC50 (IL-21; Homo sapiens, 18 h, read-out: Whole Blood: IL-21 IC50) [µM]","IC50 (IL-21; Homo sapiens, read-out: IC50 IL-21) [µM]","IC50 (IL-33; Homo sapiens, 18 h, read-out: Whole Blood: IL-33 IC50) [µM]","IC50 (IL-33; Homo sapiens, read-out: IC50 IL-33) [µM]"
5.27,5.27,0.12,0.12,57.2,57.2,0.24,0.24,"O=C(O)c1cc(NC(=O)c2cc(O)c(C(=O)O)cc2O)cc(C(=O)O)c1 [Ia-015a, 5-(4-carboxy-2,5-dihydroxybenzamido)isophthalic acid]",–,–,–,–,–,–,–,–
> 100,100,0.27,0.27,67.8,67.8,31.3,31.3,"O=C(O)c1cc(NC(=O)c2cc(O)c(C(=O)O)cc2O)cc(NC(=O)c2cc(O)c(C(=O)O)cc2O)c1 [Ib-010a, 3,5-bis(2,5-dihydroxy-4-carboxybenzoylamino)benzoic acid]",–,–,–,–,–,–,–,–
> 100,100,0.84,0.84,> 100,100,20,20,"CCOC(=O)c1cc(NC(=O)c2cc(O)c(C(=O)OCC)cc2O)cc(NC(=O)c2cc(O)c(C(=O)OCC)cc2O)c1 [Ib-010a-E3, ethyl 3,5-bis(2,5-dihydroxy-4-ethoxycarbonylbenzoylamino)benzoate]",–,–,–,–,–,–,–,–
> 100,–,29.1,–,32,–,0.23,–,"O=C(Nc1ccccc1-c1nnn[nH]1)c1cc(O)c(C(=O)Nc2ccccc2-c2nnn[nH]2)cc1O [Ic-001aTz2, N1,N4-bis(2-(1H-tetrazol-5-yl)phenyl)-2,5-dihydroxyterephthalamide]",–,–,–,–,–,–,–,–
